Measured values as given in patent US20120270237A9, “METHODS FOR THE IDENTIFICATION OF KINASE INTERACTING MOLECULES AND FOR THE PURIFICATION OF KINASE PROTEINS” (Cellzone AG, priority 2009, published 2012).

Target: T1, PKD3 (Homo sapiens, UniProt O94806)
T1 sequence (O94806 1-890): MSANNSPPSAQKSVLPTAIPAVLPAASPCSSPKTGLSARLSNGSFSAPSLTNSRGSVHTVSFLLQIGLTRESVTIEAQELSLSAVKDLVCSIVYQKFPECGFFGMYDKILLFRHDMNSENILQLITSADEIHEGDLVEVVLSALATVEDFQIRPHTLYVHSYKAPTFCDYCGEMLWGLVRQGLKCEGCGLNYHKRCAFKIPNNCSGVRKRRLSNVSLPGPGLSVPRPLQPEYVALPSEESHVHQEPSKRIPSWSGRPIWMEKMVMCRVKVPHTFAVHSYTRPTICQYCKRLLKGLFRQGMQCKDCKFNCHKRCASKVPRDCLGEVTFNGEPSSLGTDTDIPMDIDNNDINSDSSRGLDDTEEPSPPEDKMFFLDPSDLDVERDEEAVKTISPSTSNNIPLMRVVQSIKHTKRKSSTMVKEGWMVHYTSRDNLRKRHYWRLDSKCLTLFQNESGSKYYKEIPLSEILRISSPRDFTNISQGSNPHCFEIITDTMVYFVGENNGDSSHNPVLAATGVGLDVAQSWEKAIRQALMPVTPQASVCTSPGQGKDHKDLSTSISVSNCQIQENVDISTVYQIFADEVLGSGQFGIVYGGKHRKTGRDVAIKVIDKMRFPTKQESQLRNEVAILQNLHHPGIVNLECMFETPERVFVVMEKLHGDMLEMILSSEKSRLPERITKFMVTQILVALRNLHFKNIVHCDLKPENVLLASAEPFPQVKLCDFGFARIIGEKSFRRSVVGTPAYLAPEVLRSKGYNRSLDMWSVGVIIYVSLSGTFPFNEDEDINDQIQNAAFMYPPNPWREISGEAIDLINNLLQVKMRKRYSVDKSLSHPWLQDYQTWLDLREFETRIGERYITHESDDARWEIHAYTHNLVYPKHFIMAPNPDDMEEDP
Assay: Kinobeads competition binding, L-363 cell lysate
Set-up: endogenous in cells; host or cells: L-363 (treated with MG132 for three hours before harvest)
Details: 10 μM free compound, L-363 lysate
Procedure: To one aliquot of cell lysate 10 μM of the free compound (FIG. 3, CZC31326) was added and allowed to bind to proteins in the lysate. Then the affinity matrix with the immobilized compound was added to capture proteins that were not interacting with the previously added free compound. Beads were separated from the lysate and bead bound proteins were eluted in SDS sample buffer and subsequently separated by SDS-Polyacrylamide gel electrophoresis (FIG. 8). Suitable gel bands were cut out and subjected to in-gel proteolytic digestion with trypsin. The second lysate aliquot was processed identically, however no free compound was added (DMSO solvent control). Peptides originating from samples 1 and 2 were labeled with iTRAQ reagents (iTRAQ 114 and iTRAQ 117) and the combined samples were analyzed with a nano-flow liquid chromatography system coupled online to a tandem mass spectrometer (LC-MS/MS) experiment followed by iTRAQ reporter ion quantification in the MS/MS spectra as described in Example 2.
For this experiment the human plasma cell leukaemia line L-363 was used (German Collection of Microorganisms and Cell Cultures, DSMZ number ACC49, Braunschweig, Germany). Cells were treated for three hours with 20 μM of the proteasome inhibitor MG132 (Z-Leu-Leu-Leu-al, Sigma C2211) prior to cell harvesting.

- inhibition at 10 µM: 98.1%
Structure (SMILES): CS(=O)(=O)Nc1ccccc1Nc1nc(Nc2cccc(OCCN)c2)ncc1Cl [CZC31326, N-(2-(2-(3-(2-aminoethoxy)phenylamino)-5-chloropyrimidin-4-ylamino)phenyl)methanesulfonamide]
